Reference: ChEMBL document CHEMBL1201862, “PubChem BioAssay data set” (2004)
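Five compound concentrations were applied to cells in 96-well plates for 48 hours; endpoints were derived by simple linear interpolation of the resulting dose-response curve. The concentration for 50% growth inhibition is given as GI50.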 The source made the active and inactive calls. No stated cut-off is given here; in the data, active = GI50 up to about 1.1 µM and inactive = higher.

Assays:
Experiment in all cases: NCI anticancer screen, dose series, 48 h
U-251 = test system: U-251
RXF 393 = test system: RXF 393
DU-145 = test system: DU-145
PC-3 = test system: PC-3
A498 = test system: A498
HOP-62 = test system: HOP-62
ACHN = test system: ACHN
HOP-92 = test system: HOP-92
T47D = test system: T47D
A549 = test system: A549
CCRF-CEM = test system: CCRF-CEM
Hs-578T = test system: Hs-578T
LOX IMVI = test system: LOX IMVI
MCF7 = test system: MCF7
OVCAR-4 = test system: OVCAR-4
SK-MEL-2 = test system: SK-MEL-2
SF-539 = test system: SF-539
TK-10 = test system: TK-10
UO-31 = test system: UO-31

Measured: GI50

C[C@]12CC(c3ccccc3O1)C(C(=O)Nc1nc(C34CC5CC(CC(C5)C3)C4)cs1)C(=O)N2 (stereo not given in full)
inactive: U-251 > 100 µM | RXF 393 > 100 µM | DU-145 > 100 µM | PC-3 > 100 µM | A498 > 100 µM | HOP-62 > 100 µM | ACHN > 100 µM | HOP-92 > 100 µM | T47D > 100 µM | A549 > 100 µM | CCRF-CEM 89.1 µM | Hs-578T > 100 µM | LOX IMVI > 100 µM | MCF7 > 100 µM | OVCAR-4 > 100 µM | SK-MEL-2 > 100 µM

COc1ccc2c(c1)CC[C@@H]1C2CC[C@]2(C)C(=C=CP(=O)(O)O)CCC12 (stereo not given in full)
inactive: U-251 > 100 µM | SF-539 > 100 µM | RXF 393 > 100 µM | DU-145 > 100 µM | PC-3 > 100 µM | A498 > 100 µM | HOP-62 > 100 µM | ACHN > 100 µM | HOP-92 > 100 µM | T47D > 100 µM | A549 > 100 µM | Hs-578T > 100 µM | LOX IMVI > 100 µM | MCF7 79.6 µM | OVCAR-4 > 100 µM | SK-MEL-2 > 100 µM | TK-10 > 100 µM

CCOC(=O)c1sc2nc(SC)nc3c2c1N=CN3c1ccc(Br)cc1
inactive: U-251 76.2 µM | RXF 393 25.4 µM | DU-145 > 100 µM | PC-3 > 100 µM | A498 25.2 µM | HOP-62 21.7 µM | ACHN > 100 µM | HOP-92 > 100 µM | T47D > 100 µM | A549 > 100 µM | CCRF-CEM > 100 µM | Hs-578T 23.1 µM | LOX IMVI > 100 µM | MCF7 > 100 µM | OVCAR-4 > 100 µM | SK-MEL-2 > 100 µM | TK-10 > 100 µM | UO-31 > 100 µM

O=[N+]([O-])c1cccc(/N=C2\c3ccccc3CN2c2cccc([N+](=O)[O-])c2)c1
inactive: U-251 > 100 µM | SF-539 71 µM | RXF 393 31.9 µM | DU-145 > 100 µM | PC-3 72.8 µM | A498 > 100 µM | HOP-62 > 100 µM | ACHN 74.5 µM | HOP-92 19.4 µM | T47D > 100 µM | A549 > 100 µM | Hs-578T 37.8 µM | LOX IMVI > 100 µM | MCF7 33.7 µM | OVCAR-4 65.9 µM | SK-MEL-2 > 100 µM | TK-10 > 100 µM | UO-31 > 100 µM

CSc1ccsc1-c1sc(-c2cc(SC)c(-c3sc(-c4cc(SC)c(-c5sccc5SC)s4)cc3SC)s2)cc1SC
inactive: U-251 67.3 µM | SF-539 > 100 µM | RXF 393 > 100 µM | DU-145 96.8 µM | PC-3 76.4 µM | A498 > 100 µM | HOP-62 > 100 µM | ACHN 32.9 µM | HOP-92 62.4 µM | T47D 28.2 µM | A549 90.8 µM | CCRF-CEM 4.26 µM | Hs-578T > 100 µM | LOX IMVI > 100 µM | MCF7 57.1 µM | OVCAR-4 > 100 µM | SK-MEL-2 > 100 µM | TK-10 > 100 µM

CCOC(=O)c1nc2ccccc2nc1Oc1ccc(F)cc1
inactive: U-251 69.2 µM | SF-539 > 100 µM | RXF 393 46.8 µM | DU-145 > 100 µM | PC-3 > 100 µM | A498 > 100 µM | HOP-62 > 100 µM | ACHN 84.3 µM | HOP-92 2.64 µM | T47D > 100 µM | A549 > 100 µM | CCRF-CEM > 100 µM | Hs-578T 39.3 µM | LOX IMVI > 100 µM | MCF7 > 100 µM | SK-MEL-2 > 100 µM | TK-10 > 100 µM | UO-31 > 100 µM
